Data taken from patent publication US9261498B2, “Biomarker for sensitivity to mTOR inhibitor therapy in kidney cancer” (The Regents of the University of California, priority 2005, dated 2016).
Entries after “also recorded” stand apart in the source; their conditions may differ.

Test system: SN12C-VHLshRNA-HIF-2α mutant xenograft tumors
Test: Subcutaneous xenograft tumor growth, VHL knockdown cells with HIF-2α mutant
Type: in vivo, SCID mice
Details: 0.1 mg/kg CCI-779 daily
Experimental: FIGS. 4A-4C. Rescue of CCI-779 growth suppression by HIF-1-α and HIF-2-α prolyl hydcroxylase mutants. SN12C-CSCG-VHLshRNA cells stably infected with the prolyl hydroxylation defective cDNA mutants p-Babe-puro-HA-HIF-1α (P564A), HIF-2α (P405A; P531A) or backbone vector were treated with CCI-779 or vehicle and harvested 24 hours later. (a) Lysates were subjected to immunoblotting for HIF-1α, HIF-2α, GLUT-1, CA-IX, p-eIF4G, p-S6 and β-Actin as loading control. (b) SN12C-VHLshRNA, SN12C-VHLshRNA-HIF-1α mutant, SN12C-VHLshRNA-HIF-2α mutant cells (1×10^5) were cultured in 10% serum rich media, in the presence of vehicle, 1 or 10 nM of CCI-779 for 5 days. Cell growth was measured by cell counts (n=3). […]
For in vitro experiments, cells (5×10^4) were plated and treated with 1 and 10 nM CCI-779 (kind gift of J. Gibbons, Wyeth) or vehicle (ethanol). On day 5-post treatment, cells were trypsinized, resuspended in DMEM with 10% FBS and counted using the VI CELL counter (Beckman Coulter), according to the manufacturer's instructions. […] In vivo tumorigenicity was measured by injection of 5×10^5 SN12C-CSCG, ACHN-CSCG, SN12C-CSCG-VHLshRNAi, ACHN-CSCG-VHLshRNAi, SN12C-CSCG-VHLshRNAi-pBABE, SN12C-CSCG-VHLshRNAi-pBABE-HA-HIF-2α (P405A; P531A) cells in 100 μl of Matrigel (Collaborative Biomedical) subcutaneously into the flanks of SCID mice. […]

Compound: CO[C@H]1C[C@@H]2CC[C@@H](C)[C@@](O)(O2)C(=O)C(=O)N2CCCC[C@H]2C(=O)O[C@H]([C@H](C)C[C@@H]2CC[C@@H](OC(=O)C(C)(CO)CO)[C@H](OC)C2)CC(=O)[C@H](C)/C=C(\C)[C@@H](O)[C@@H](OC)C(=O)[C@H](C)C[C@H](C)/C=C/C=C/C=C/1C [CCI-779]
- growth inhibitory effect of CCI-779 in HIF mutant xenografts: completely rescued; also recorded: reversal of both the in vitro and in vivo sensitivity
